The results in this text go back to patent US9744145B1, “Methods for treating lung cancer” (Macau University of Science and Technology, priority 2017, dated 2017).

In one assay the target is PKM2 enzyme (Homo sapiens, UniProt P14618). The assay is described as follows: PKM2 enzyme activity assay (KINASE GLO Plus). Format: biochemical. The protocol:
5. PKM2 Enzyme Activity Assay
PKM2 biochemical assay Compounds were pre-incubated with 2 nmol/L PKM2 enzyme in reaction buffer (50 mmol/L Tris-HCl, pH 8.0, 200 mmol/L KCl, 30 mmol/L MgCl2, 2 mmol/L dithiothreitol (DTT), 5% DMSO) for 30 minutes at room temperature. ADP and PEP were then added to final concentrations of […] and 15 mmol/L, respectively. After 30 minutes, ATP formation was measured by KINASE GLO® Plus from Promega, and Concentration at half-maximal activation (AC50) values were determined using Prism GraphPad Software.
PKM2 enzyme activity assay over the concentration of formula I was performed in KINASE GLO® Plus assay. The controls were conducted in the presence of 5% Dimethyl sulfoxide (DMSO) and normalized to 100%±SD. […] (n=3, **p<0.005, ***p<0.001). […] The maximum PKM2 enzyme activity was more than 200% compared to that in controls.
On the technique in general: Kinase-Glo measures the ATP left after a reaction by luminescence.

Assay [1] relates to PKM2 phosphorylation / AKT pathway in H1975 cells. Kind of assay: Western blot analysis, H1975. Format: cell-based. The procedure: (§1) After incubation A549 and H1975 cells with formula I for 24 hours and 72 hours, A549 and H1975 cells were harvested and washed with cold 1×PBS. Then, cells were lysed with ice-cold RIPA lysis buffer with protease, and phosphatase inhibitors were added to extract the cell protein extraction. The supernatants were collected by centrifugation at 12,000 g, for 5 minutes. The quantitation of total protein extraction was measured by Bio-Rad DCTM protein assay kit (Bio-Rad, Philadelphia, Pa., USA). Then 30 μg of protein were loaded and electrophoretically separated on 8% SDS-PAGE gel and then transferred to Nitrocellulose (NC) membrane. Membranes were blocked with 5% non-fat milk and […] containing 0.1% Tween-20 (TBST) for 1 hour at room temperature. After 1 hour, membranes were incubated with primary anti-bodies (1:1000 dilution) against β-actin, total/phosphor-PKM2, total/phosphor-AKT, and BCL-2 at 4° C. with gently shaking overnight. Membranes were washed with TBST for 3 times (5 minutes/time), and incubated with secondary fluorescent antibody (1:10000 dilutions) for 1 hour at room temperature. Rewashing with TBST for 3 times (15 minutes/time), the stripes were visualized by LI-COR Odessy scanner (Belfast, Me., USA).
A general note: In western blotting, separated proteins are transferred to a membrane and probed.

In assay [2] the test system is PKM2 phosphorylation / AKT pathway in A549 cells. Kind of assay: Western blot analysis, A549. It is filed as cell-based. The procedure: as §1
The test system of the next assay is A549 cells. The assay is described as follows: Apoptosis assay, Annexin V/PI flow cytometry, A549. It is filed as cell-based. Particulars: 24, 48 and 72 hours, vs control group. The protocol: (§2) A549 and H1975 cells (1×10^5 cells/well) were seeded in a well plate with 6 wells for 24 hours, and treated with the indicated concentrations of formula I for an additional 24 hours, 48 hours and 72 hours at 37° C. After indicated hours, the cells were washed by ice-cold 1×PBS once and harvested by trypsination. Then cells were centrifuged, collected, and resuspended in ice-cold 1×PBS. After removing the supernatants, cell pellets were re-suspended in 100 μL 1×Annexin-binding buffer. The cells were then double-stained with Annexin-V FITC and PI (100 μg/mL) of 2 μL respectively for 15 min at room temperature in dark. After that, 300 μL 1× Annexin-binding buffer was added. Apoptotic cells were quantitatively counted by a BD Aria III Flow Cytometer (BD Biosciences, San Jose, Calif., USA)
Background: A flow cytometer gives signals particle by particle.

The subject of the next assay is H1975 cells. Kind of assay: Apoptosis assay, Annexin V/PI flow cytometry, H1975. Format: cell-based. Particulars: 24, 48 and 72 hours, vs control group. The protocol: as §2

Chain of PKM2 enzyme (P14618 whole entry): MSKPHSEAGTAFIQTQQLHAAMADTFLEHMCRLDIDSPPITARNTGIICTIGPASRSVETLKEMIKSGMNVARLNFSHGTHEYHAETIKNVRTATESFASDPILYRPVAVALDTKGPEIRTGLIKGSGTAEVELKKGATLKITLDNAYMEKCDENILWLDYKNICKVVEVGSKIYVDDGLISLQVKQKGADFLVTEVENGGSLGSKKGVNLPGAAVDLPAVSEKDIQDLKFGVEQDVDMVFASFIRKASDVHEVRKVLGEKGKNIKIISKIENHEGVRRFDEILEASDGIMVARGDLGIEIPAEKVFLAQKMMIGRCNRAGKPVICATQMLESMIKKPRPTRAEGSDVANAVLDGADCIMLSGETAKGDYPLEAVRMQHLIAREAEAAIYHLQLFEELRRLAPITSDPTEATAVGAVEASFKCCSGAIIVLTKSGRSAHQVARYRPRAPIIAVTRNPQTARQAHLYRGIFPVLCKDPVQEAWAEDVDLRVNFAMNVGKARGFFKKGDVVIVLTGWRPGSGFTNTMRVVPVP

With `O=S(=O)(Nc1ccccc1)c1ccc(-c2ccc(S(=O)(=O)Nc3ccccc3)cc2)cc1` [formula I], the AC50 on PKM2 enzyme (2 nmol/L PKM2, KINASE GLO Plus, n=3, read-out: AC50 (concentration at half-maximal activation)) turned out to be 5.5 ± 1 µM. Also, the “maximum PKM2 enzyme activity compared to controls” value at PKM2 enzyme (controls with 5% DMSO normalized to 100%) is recorded as “more than 200%”. The AKT pathway entry in assay [1] and in assay [2] was “selectively inhibited AKT pathway” throughout. The PKM2 phosphorylation entry in assay [1] (β-actin loading control) and in assay [2] (β-actin loading control) was “activated phosphorylation of both PKM2 in a dose-dependent manner” throughout. Also, the apoptosis level result in the assay with A549 cells and in the assay with H1975 cells was “induced significant level of apoptosis in a concentration-dependent manner” each time.
